From PubChem BioAssay (NCI)
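Compound exposure: 48 hours, 5 concentrations, 96-well plates. The concentration for full growth arrest is given as TGI.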

What was measured:
Test in all cases: DTP human tumour cell line panel, 48 h
[1] = tested on: SW-620 colon
[2] = tested on: NCI-H226 lung
[3] = tested on: NCI-H522 lung
[4] = tested on: UACC-257 melanoma
[5] = tested on: MCF7 breast
[6] = tested on: K-562 leukemia
[7] = tested on: SNB-19 CNS
[8] = tested on: A498 renal
[9] = tested on: PC-3 prostate
[10] = tested on: SK-MEL-2 melanoma
[11] = tested on: SF-268 CNS
[12] = tested on: COLO 205 colon
[13] = tested on: MDA-MB-231 breast
[14] = tested on: MOLT-4 leukemia
[15] = tested on: HCT-116 colon
[16] = tested on: RXF 393 renal
[17] = tested on: U251 CNS
[18] = tested on: KM12 colon
[19] = tested on: MDA-N
[20] = tested on: HOP-92 NSCLC

SMILES | TGI [1] | TGI [2] | TGI [3] | TGI [4] | TGI [5] | TGI [6] | TGI [7] | TGI [8] | TGI [9] | TGI [10] | TGI [11] | TGI [12] | TGI [13] | TGI [14] | TGI [15] | TGI [16] | TGI [17] | TGI [18] | TGI [19] | TGI [20]
CN(/N=C/c1ccccn1)C1=NCCCN1 | > 100 µM | > 100 µM | > 100 µM | > 100 µM | > 100 µM | > 100 µM | > 100 µM | > 100 µM | > 100 µM | > 100 µM | > 100 µM | > 100 µM | > 100 µM | > 100 µM | > 100 µM | > 100 µM | > 100 µM | > 100 µM | > 100 µM | > 100 µM
CC(=O)C1C(=O)C(=O)N(c2ccc([N+](=O)[O-])cc2)C1=O (stereo not drawn) | > 100 µM | > 100 µM | > 100 µM | > 100 µM | > 100 µM |  | > 100 µM |  | > 100 µM | > 100 µM | > 100 µM | > 100 µM | > 100 µM | > 100 µM | > 100 µM | > 100 µM | > 100 µM | > 100 µM | > 100 µM | > 100 µM
CCNC1=C(NC(=O)c2ccccc2)C(=O)c2ccccc2C1=O | > 100 µM | > 100 µM | 79.2 µM | 64.5 µM | > 100 µM | > 100 µM | > 100 µM |  | 78.9 µM |  |  | > 100 µM | > 100 µM | > 100 µM | > 100 µM | 74.1 µM | > 100 µM | > 100 µM | 24.1 µM | > 100 µM
CCOC(=O)c1c(N2CCCC2)[nH]c(=O)c(C(c2ccc(Cl)c([N+](=O)[O-])c2)c2c(O)c(C(=O)OCC)c(N3CCCC3)[nH]c2=O)c1O | > 100 µM | > 100 µM | 74.1 µM | > 100 µM | > 100 µM | > 100 µM | 49.9 µM | > 100 µM | 83.9 µM |  | 55.2 µM | > 100 µM | 50.5 µM | > 100 µM | > 100 µM | 99.6 µM | 36.9 µM | > 100 µM | 79.6 µM | 58.3 µM
COC(=O)c1c(O)ccc2c1c1c(n2Cc2ccccc2OC)C(=O)c2ccccc2C1=O | 29.8 µM | 39.3 µM | 26.8 µM | 55.1 µM | 43.7 µM | 17.3 µM | 95.9 µM | > 100 µM | 24.5 µM | 32.5 µM | 29.7 µM | 3.31 µM | 54.9 µM | 1.42 µM | 16.6 µM | 30.7 µM | 24.4 µM | 23.4 µM | 37.9 µM | 22.4 µM
COC(=O)c1cc(O)c(O)c(O)c1-c1c(O)c(O)c(O)c(SC[C@H](NC(=O)OCc2ccccc2)C(=O)OCc2ccccc2)c1C(=O)OC | 62.8 µM | 48.2 µM | 59.3 µM | > 100 µM | 43.1 µM | 70.2 µM | > 100 µM | > 100 µM | 62.7 µM | 52.9 µM | > 100 µM | 48.4 µM | 39 µM | 43.4 µM | 35.7 µM | > 100 µM | 33.5 µM | > 100 µM | 47.5 µM | > 100 µM
C=CCNC1=C2C[C@@H](C)C[C@H](OC)[C@H](O)[C@@H](C)/C=C(\C)[C@H](OC(N)=O)[C@@H](OC)/C=C\C=C(/C)C(=O)NC(=CC1=O)C2=O | 33.9 µM | 28.9 µM | 22.3 µM | 21.3 µM | 16 µM | 29.7 µM | 62.2 µM | 30 µM | 40.7 µM | 19.1 µM | 49.6 µM | 1.67 µM | 23.6 µM | 13 µM | 26.1 µM | 10.1 µM | 49.5 µM | 0.237 µM | 15 µM | 15.9 µM
c1ccc2c(c1)c1c3c(c4c(n32)=NCCN4)CCC1 | > 100 µM | 80.9 µM | 61.2 µM | > 100 µM | 98.2 µM | > 100 µM | > 100 µM | 65.8 µM | > 100 µM | 66.2 µM | > 100 µM | > 100 µM | 98.9 µM | 60.9 µM | > 100 µM | 60.8 µM | > 100 µM | > 100 µM | 59.3 µM | 88 µM
Cc1ccc(S(=O)(=O)N/N=C2\CCCCCCCCCCC2CN(C)C)cc1 (stereo not drawn) | 31.8 µM | 35.2 µM | 27.4 µM | 28.7 µM | 31 µM | 56.5 µM | 30.4 µM | 34.9 µM | 30.3 µM | 22.8 µM | 54.3 µM | 31.9 µM | 34 µM | > 100 µM | 28.2 µM | 26.6 µM | 29.3 µM | 31.8 µM | 32.8 µM | 24.7 µM
O=C(O)CCCNc1ncc2c(n1)-c1ccccc1OC2 | > 100 µM | > 100 µM | > 100 µM | > 100 µM | > 100 µM | > 100 µM | > 100 µM |  | > 100 µM | > 100 µM | > 100 µM | > 100 µM | > 100 µM | > 100 µM | > 100 µM | > 100 µM | > 100 µM | > 100 µM | > 100 µM | > 100 µM
COc1ccc2c(c1)C(OC)C1c3c(cc4c(c3-2)OCO4)CCN1C (stereo not drawn) | 18.7 µM | 9.09 µM | 6.23 µM | 13 µM | 8.13 µM | > 57.3 µM | 19.3 µM | 4.96 µM | 9.34 µM | 7.9 µM | 20.2 µM | > 43.6 µM | 9.59 µM | > 51.7 µM | > 71.7 µM | 6.43 µM | 18.9 µM | 18.6 µM | 12 µM | 11.8 µM
O=S(=O)(O)c1ccc2c(N=Nc3ccc(S(=O)(=O)O)c4ccccc34)c(O)c(S(=O)(=O)O)cc2c1 | > 100 µM | > 100 µM | > 100 µM | > 100 µM | > 100 µM | > 100 µM | > 100 µM | > 100 µM | > 100 µM | > 100 µM | > 100 µM | > 100 µM | > 100 µM | > 100 µM | > 100 µM | > 100 µM | > 100 µM | > 100 µM | > 100 µM | > 100 µM
